Consider four compounds from patent publication US10144733B2, “Naphthyridine derivatives as alpha v beta 6 integrin antagonists for the treatment of E.G. fibrotic diseases” (GlaxoSmithKline Intellectual Property Development Limited, priority 2014, dated 2018).

Format in all cases: cell-based
The target of one experiment is T1, αvβ6 (Homo sapiens, UniProt P06756+P18564).
T1 construct: expressed in transfected cells; host or cells: K562
The experiment is described as follows: Cell Adhesion Assay K562-αvβ6 (LAP-b1). The conditions noted are these: K562-αvβ6 cells, ligand LAP-b1, 2 mM MgCl2; read-out: mean affinity (pIC50) αvβ6 (converted). The protocol: (§1) The following cell lines were used, with ligands in brackets: K562-α5β1 (Fibronectin), K562-αvβ3 (LAP-b1), K562-αvβ5 (Vitronectin), K562-αvβ6 (LAP-b1), K562-αvβ8 (LAP-b1). The divalent cation used to facilitate adhesion was 2 mM MgCl2. Adhesion was quantified by cell labelling with the fluorescent dye BCECF-AM (Life Technologies), where cell suspensions at 3×10^6 cells/mL were incubated with […] of 30 mM BCECF-AM at 37° C. for 10 minutes, before dispensing into the assay plate. At the assay conclusion cells that adhered were lysed using 50 μL/well of 0.5% Triton X-100 in H2O to release fluorescence. Fluorescence intensity was detected using an Envision® plate reader (Perkin Elmer). For active antagonists in the assay, data were fitted to a 4 parameter logistic equation for IC50 determinations.

Another experiment concerns the target T2, αvβ3 (Homo sapiens, UniProt P05106+P06756).
T2 construct: expressed in transfected cells; host or cells: K562
The experiment is described as follows: Cell Adhesion Assay K562-αvβ3 (LAP-b1). The conditions noted are these: K562-αvβ3 cells, ligand LAP-b1, 2 mM MgCl2; read-out: mean affinity (pIC50) αvβ3 (converted). Here is the method: as §1

For a further experiment, the target named is T3, αvβ5 (Homo sapiens, UniProt P06756+P18084).
T3 construct: expressed in transfected cells; host or cells: K562
The experiment is described as follows: Cell Adhesion Assay K562-αvβ5 (Vitronectin). Conditions: K562-αvβ5 cells, ligand Vitronectin, 2 mM MgCl2; read-out: mean affinity (pIC50) αvβ5 (converted). The protocol: as §1

The next experiment addresses T4, αvβ8 (Homo sapiens, UniProt P06756+P26012).
T4 construct: expressed in transfected cells; host or cells: K562
Nature of the experiment: Cell Adhesion Assay K562-αvβ8 (LAP-b1). The conditions noted are these: K562-αvβ8 cells, ligand LAP-b1, 2 mM MgCl2; read-out: mean affinity (pIC50) αvβ8 (converted). The protocol: as §1

For another experiment, the target named is αvβ1 (Homo sapiens, UniProt P05556+P06756). Nature of the experiment: Cell Adhesion Assay αvβ1. The conditions noted are these: 2 mM MgCl2, cell line and ligand for αvβ1 not given, read-out: mean affinity (pIC50) αvβ1 (converted).

T3 sequence (P06756 31-889 limits assumed): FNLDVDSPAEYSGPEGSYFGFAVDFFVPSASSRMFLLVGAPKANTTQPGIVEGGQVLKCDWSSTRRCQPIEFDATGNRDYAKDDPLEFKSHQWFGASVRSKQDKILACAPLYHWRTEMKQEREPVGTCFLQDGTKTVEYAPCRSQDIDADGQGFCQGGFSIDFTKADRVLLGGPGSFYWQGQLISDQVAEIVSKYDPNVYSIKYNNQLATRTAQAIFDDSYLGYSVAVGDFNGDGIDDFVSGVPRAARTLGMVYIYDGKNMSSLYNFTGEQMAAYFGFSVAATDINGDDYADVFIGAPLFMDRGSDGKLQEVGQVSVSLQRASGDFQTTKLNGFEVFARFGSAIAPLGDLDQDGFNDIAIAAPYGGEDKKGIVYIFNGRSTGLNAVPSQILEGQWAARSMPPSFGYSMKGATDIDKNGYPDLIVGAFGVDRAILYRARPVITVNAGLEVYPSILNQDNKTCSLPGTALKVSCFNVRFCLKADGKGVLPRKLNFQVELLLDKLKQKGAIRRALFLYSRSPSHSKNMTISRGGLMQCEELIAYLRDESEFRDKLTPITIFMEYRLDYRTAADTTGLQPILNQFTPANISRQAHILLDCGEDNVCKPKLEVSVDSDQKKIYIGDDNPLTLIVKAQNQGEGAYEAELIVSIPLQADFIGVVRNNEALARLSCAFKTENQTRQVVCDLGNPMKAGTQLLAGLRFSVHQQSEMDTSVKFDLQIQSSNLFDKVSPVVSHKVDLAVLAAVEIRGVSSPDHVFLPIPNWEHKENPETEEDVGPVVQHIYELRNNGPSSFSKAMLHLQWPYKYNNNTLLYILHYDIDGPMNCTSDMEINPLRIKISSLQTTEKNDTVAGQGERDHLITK
T3 sequence (P06756 891-1048 partner limits assumed): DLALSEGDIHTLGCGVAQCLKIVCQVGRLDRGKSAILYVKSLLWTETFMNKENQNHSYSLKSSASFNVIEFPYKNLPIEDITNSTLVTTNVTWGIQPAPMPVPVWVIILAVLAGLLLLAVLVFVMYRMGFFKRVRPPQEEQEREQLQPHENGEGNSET
T3 sequence (P18084 24-799): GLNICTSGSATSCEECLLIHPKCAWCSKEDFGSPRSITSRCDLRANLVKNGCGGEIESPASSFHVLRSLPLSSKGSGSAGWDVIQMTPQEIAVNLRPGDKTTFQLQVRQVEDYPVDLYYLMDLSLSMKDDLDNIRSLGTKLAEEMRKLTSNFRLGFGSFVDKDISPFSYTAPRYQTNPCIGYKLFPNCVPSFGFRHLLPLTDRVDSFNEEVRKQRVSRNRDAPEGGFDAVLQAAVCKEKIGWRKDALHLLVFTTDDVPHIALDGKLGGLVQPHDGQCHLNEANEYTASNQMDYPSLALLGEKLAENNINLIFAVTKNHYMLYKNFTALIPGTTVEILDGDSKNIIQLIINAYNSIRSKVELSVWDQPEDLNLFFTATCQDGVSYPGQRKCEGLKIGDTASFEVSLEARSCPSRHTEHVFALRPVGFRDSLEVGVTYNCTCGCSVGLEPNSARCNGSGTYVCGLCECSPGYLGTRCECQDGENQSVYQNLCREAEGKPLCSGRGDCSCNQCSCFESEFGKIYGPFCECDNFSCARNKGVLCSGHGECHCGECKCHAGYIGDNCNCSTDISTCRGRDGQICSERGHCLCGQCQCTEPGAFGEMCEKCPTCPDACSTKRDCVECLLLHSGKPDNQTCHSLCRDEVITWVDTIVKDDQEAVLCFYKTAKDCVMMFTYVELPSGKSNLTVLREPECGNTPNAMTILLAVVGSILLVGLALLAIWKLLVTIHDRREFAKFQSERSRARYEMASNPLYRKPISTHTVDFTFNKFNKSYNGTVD
T1 sequence (P06756 31-889 limits assumed): as the sequence (P06756 31-889 limits assumed) above
T1 sequence (P06756 891-1048 partner limits assumed): as the sequence (P06756 891-1048 partner limits assumed) above
T1 sequence (P18564 22-788): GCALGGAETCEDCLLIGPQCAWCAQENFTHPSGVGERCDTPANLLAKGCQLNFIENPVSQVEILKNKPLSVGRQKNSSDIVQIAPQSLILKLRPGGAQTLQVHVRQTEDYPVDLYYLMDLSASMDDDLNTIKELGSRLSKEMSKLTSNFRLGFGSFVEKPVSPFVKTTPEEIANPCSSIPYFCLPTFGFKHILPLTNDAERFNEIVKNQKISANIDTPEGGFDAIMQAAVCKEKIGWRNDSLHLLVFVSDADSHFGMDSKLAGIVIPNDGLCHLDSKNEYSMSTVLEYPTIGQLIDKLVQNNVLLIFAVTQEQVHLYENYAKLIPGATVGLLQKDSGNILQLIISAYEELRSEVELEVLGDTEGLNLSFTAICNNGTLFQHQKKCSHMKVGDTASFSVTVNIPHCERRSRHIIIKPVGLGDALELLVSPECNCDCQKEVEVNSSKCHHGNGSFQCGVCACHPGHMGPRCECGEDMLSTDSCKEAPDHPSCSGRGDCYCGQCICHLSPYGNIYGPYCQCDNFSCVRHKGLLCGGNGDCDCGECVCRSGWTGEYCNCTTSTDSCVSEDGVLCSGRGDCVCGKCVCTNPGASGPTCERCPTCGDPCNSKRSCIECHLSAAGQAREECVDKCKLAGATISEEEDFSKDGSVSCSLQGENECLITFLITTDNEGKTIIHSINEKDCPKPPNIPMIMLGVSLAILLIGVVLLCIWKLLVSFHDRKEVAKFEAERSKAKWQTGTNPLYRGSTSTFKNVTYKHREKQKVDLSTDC
T2 sequence (P06756 31-889 limits assumed): as the sequence (P06756 31-889 limits assumed) above
T2 sequence (P06756 891-1048 partner limits assumed): as the sequence (P06756 891-1048 partner limits assumed) above
T2 sequence (P05106 27-788): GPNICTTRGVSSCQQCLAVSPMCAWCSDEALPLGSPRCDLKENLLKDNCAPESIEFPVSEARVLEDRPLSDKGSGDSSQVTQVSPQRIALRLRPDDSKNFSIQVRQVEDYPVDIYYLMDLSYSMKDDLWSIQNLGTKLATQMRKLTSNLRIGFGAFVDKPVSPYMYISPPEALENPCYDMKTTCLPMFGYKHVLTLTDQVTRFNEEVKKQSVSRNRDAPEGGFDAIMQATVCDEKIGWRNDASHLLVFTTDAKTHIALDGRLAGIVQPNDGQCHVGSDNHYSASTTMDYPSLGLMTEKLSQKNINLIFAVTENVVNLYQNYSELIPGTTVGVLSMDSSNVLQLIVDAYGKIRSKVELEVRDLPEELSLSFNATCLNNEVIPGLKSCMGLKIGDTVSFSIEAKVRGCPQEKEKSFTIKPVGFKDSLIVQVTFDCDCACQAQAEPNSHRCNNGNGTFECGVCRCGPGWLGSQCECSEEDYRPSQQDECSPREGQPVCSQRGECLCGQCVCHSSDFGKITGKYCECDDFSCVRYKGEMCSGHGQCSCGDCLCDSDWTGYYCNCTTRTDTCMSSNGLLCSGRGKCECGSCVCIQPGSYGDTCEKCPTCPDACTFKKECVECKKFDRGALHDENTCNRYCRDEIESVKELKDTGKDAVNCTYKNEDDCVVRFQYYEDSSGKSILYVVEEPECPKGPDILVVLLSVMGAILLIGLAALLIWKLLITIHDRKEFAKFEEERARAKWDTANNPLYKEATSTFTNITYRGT
T4 sequence (P06756 31-889 limits assumed): as the sequence (P06756 31-889 limits assumed) above
T4 sequence (P06756 891-1048 partner limits assumed): as the sequence (P06756 891-1048 partner limits assumed) above
T4 sequence (P26012 43-769): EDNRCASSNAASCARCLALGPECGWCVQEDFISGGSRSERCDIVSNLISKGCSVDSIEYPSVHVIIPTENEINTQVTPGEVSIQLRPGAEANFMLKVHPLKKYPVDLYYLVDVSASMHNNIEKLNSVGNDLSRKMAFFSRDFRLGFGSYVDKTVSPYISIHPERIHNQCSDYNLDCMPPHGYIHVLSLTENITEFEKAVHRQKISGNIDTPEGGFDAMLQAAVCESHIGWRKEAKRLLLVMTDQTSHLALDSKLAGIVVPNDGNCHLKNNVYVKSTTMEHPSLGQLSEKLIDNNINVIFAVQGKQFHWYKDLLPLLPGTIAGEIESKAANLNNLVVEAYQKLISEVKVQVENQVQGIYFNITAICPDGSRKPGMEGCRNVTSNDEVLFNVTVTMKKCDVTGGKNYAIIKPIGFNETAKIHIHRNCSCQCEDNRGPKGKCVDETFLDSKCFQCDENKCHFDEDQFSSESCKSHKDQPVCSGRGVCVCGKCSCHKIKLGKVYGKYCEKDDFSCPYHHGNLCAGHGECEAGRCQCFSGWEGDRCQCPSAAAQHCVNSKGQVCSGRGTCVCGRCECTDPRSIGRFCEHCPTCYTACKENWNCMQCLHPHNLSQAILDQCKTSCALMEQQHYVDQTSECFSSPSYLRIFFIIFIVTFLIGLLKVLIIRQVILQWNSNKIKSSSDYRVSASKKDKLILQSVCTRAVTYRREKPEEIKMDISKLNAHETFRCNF

Regarding `Cc1cc(CO)nn1-c1cccc(C(CC(=O)O)CN2CC[C@@H](CCc3ccc4c(n3)NCCC4)C2)c1` (single isomer, unassigned) [Example 10], the IC50 was 0.00251 µM on αvβ6, 0.631 µM at αvβ3, 0.158 µM at αvβ5 and 0.01 µM on αvβ8.

As for `O=C(O)CC(CN1CC[C@@H](CCc2ccc3c(n2)NCCC3)C1)c1cccc(-n2ccc(C(F)(F)F)n2)c1` (stereo partly drawn) [Example 7, 4-((R)-3-(2-(5,6,7,8-tetrahydro-1,8-naphthyridin-2-yl)ethyl)pyrrolidin-1-yl)-3-(3-(3-(trifluoromethyl)-1H-pyrazol-1-yl)phenyl) butanoic acid], the IC50 is 0.00631 µM on αvβ6, 0.631 µM at αvβ3, 0.0501 µM on αvβ5 and 0.0251 µM at αvβ8.

Regarding `Cc1cc(CF)nn1-c1cccc(C(CC(=O)O)CN2CC[C@@H](CCc3ccc4c(n3)NCCC4)C2)c1` (stereo partly drawn) [Example 11, 3-(3-(3-(fluoromethyl)-5-methyl-1H-pyrazol-1-yl)phenyl)-4-((R)-3-(2-(5,6,7,8-tetrahydro-18-naphthyridin-2-yl)ethyl)pyrrolidin-1-yl)butanoic acid], the IC50 on αvβ6 was 0.00316 µM; at αvβ3, 1.26 µM; on αvβ5, 0.158 µM; at αvβ8 it was 0.0158 µM; at αvβ1, 0.0631 µM.

Consider `Cc1cc(C(C)(C)O)nn1-c1cccc(C(CC(=O)O)CN2CC[C@@H](CCc3ccc4c(n3)NCCC4)C2)c1` (single isomer, unassigned) [Example 6], for which the IC50 on αvβ6 was 0.0126 µM; at αvβ3, 3.98 µM; at αvβ5, 0.2 µM; at αvβ8 it was 0.0501 µM.
